According to article PMC6286256 (Cancer chemotherapy and pharmacology, 2018):

Legend:
[1] = tested on: solid tumors; conditions: cited from earlier work
[2] = tested on: PI3K/mTOR; conditions: cellular assays; cited from earlier work
[3] = tested on: patients with advanced solid tumors; conditions: single-agent BEZ235, oral once daily, continuous 28-day cycles
[4] = tested on: patients with advanced solid tumors; assay: Safety and tolerability; assay type: in vivo, human; conditions: single-agent SDS sachet cohort, all doses, 61 patients
[5] = tested on: mTOR; conditions: cellular assays; cited from earlier work
[6] = human, in vivo
[7] = tested on: advanced solid tumors; assay: Best overall response, all patients; assay type: in vivo, human; conditions: single agent and combination

| SMILES | Incidence of stomatitis [1] | concentration at which dual PI3K/mTOR blockade is observed [2] | MTD [3] | Diarrhea, frequency [4] | Nausea, frequency [4] | Vomiting, frequency [4] | concentration at which mTOR inhibition predominates [5] | Bioavailability [6] | Patients with PR as best overall response ([7]; 5 patients) | Patients with SD as best overall response ([7]; 62 patients) |
| --- | --- | --- | --- | --- | --- | --- | --- | --- | --- | --- |
| CO[C@H]1C[C@@H]2CC[C@@H](C)[C@@](O)(O2)C(=O)C(=O)N2CCCC[C@H]2C(=O)O[C@H]([C@H](C)C[C@@H]2CC[C@@H](OCCO)[C@H](OC)C2)CC(=O)[C@H](C)/C=C(\C)[C@@H](O)[C@@H](OC)C(=O)[C@H](C)C[C@H](C)/C=C/C=C/C=C/1C [everolimus] | 59–71% | – | – | – | – | – | – | – | – | – |
| Cn1c(=O)n(-c2ccc(C(C)(C)C#N)cc2)c2c3cc(-c4cnc5ccccc5c4)ccc3ncc21 [BEZ235] | – | ≈ 500 nmol/L | 1200 mg/day | 75.4% | 80.3% | 63.9% | < 100 nmol/L | low bioavailability | 2.7% | 33.9% |
